Experimental data published in ChEMBL document CHEMBL1201862, “PubChem BioAssay data set” (2004).
Counter-ions that a name gives are not always drawn. Activity calls are given as the source filed them.

How the values were obtained:
[1] = target: Voltage-gated inwardly rectifying potassium channel KCNH2 (Homo sapiens, UniProt Q12809); details: Potency;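 note: confirmatory quantitative high-throughput screen measuring inhibition of hERG channel activity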
BJ [2] = experiment: cells; assay type: functional, cell-based; details: Homo sapiens
[3] = cytotoxicity toward DRD oncogenic fibroblasts, dose response, cell-based, non-viral oncogenic, luminescence (AID 1934); assay type: functional; details: Homo sapiens
BJ [4] = experiment: cytotoxicity toward BJ-TERT fibroblasts, dose response, cell-based, RAS-independent, luminescence (AID 1933); assay type: functional; details: Homo sapiens
BJ [5] = experiment: cytotoxicity toward BJ-TERT-LT-ST fibroblasts, dose response, cell-based, RAS-independent, luminescence (AID 1935); assay type: functional; details: Homo sapiens;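 note: BJ fibroblasts immortalized with TERT plus LT and ST oncogenes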
[6] = target: T1, Carboxy-terminal domain RNA polymerase II polypeptide A small phosphatase 1 (Homo sapiens, UniProt Q9GZU7); experiment: inhibitors of CTDSP1, concentration-response testing, biochemical assay, absorbance-based, actives from ultra-high-throughput screening (AID 540297); assay type: functional
T1 sequence (Q9GZU7 whole entry): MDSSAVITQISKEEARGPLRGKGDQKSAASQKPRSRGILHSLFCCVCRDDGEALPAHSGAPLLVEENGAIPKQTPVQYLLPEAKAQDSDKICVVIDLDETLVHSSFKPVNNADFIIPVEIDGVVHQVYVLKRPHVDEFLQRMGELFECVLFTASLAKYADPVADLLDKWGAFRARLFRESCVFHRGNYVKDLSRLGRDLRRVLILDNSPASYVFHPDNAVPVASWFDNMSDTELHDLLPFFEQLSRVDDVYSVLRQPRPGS

[7] = target: T2, Short transient receptor potential channel 4 (Mus musculus, UniProt Q9QUQ5); experiment: mouse TRPC4 channel inhibitors, dose response, cell-based, HEK293 TRPC4/mu-opioid, Fluo-4 calcium (AID 434942); assay type: functional;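 note: potency of inhibitors blocking the TRPC4 calcium response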
T2 sequence (Q9QUQ5 whole entry): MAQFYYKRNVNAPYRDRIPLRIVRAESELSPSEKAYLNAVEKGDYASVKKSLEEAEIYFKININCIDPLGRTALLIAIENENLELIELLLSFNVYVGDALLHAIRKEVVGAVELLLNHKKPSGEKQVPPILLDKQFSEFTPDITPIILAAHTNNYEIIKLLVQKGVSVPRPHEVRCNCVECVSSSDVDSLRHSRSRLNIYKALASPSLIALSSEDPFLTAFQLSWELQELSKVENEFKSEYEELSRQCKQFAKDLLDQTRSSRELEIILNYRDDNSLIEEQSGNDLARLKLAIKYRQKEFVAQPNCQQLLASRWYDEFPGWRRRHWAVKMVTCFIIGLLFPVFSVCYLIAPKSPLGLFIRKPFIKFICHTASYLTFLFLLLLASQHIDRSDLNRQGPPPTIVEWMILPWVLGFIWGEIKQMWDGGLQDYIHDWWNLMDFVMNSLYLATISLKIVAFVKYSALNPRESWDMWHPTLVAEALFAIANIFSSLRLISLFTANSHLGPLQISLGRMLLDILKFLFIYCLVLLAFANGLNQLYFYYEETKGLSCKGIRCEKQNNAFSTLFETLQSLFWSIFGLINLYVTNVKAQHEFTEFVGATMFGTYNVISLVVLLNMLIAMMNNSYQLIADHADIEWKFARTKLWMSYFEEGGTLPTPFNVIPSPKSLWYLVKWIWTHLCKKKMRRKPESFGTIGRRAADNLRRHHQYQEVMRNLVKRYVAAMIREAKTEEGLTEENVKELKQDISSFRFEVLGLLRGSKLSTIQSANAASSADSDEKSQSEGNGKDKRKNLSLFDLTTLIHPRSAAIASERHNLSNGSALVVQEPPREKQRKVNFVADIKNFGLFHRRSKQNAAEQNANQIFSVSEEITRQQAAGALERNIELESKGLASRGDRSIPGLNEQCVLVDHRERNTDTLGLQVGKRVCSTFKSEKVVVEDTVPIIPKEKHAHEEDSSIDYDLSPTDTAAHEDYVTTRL

Coagulation factor XII = target: T3, Coagulation factor XII (Homo sapiens, UniProt P00748); assay type: functional;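 note: activated factor XIIa alpha cleaving a fluorogenic AMC peptide substrate; inhibitor potency from loss of enzyme activity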
T3 sequence (P00748 whole entry): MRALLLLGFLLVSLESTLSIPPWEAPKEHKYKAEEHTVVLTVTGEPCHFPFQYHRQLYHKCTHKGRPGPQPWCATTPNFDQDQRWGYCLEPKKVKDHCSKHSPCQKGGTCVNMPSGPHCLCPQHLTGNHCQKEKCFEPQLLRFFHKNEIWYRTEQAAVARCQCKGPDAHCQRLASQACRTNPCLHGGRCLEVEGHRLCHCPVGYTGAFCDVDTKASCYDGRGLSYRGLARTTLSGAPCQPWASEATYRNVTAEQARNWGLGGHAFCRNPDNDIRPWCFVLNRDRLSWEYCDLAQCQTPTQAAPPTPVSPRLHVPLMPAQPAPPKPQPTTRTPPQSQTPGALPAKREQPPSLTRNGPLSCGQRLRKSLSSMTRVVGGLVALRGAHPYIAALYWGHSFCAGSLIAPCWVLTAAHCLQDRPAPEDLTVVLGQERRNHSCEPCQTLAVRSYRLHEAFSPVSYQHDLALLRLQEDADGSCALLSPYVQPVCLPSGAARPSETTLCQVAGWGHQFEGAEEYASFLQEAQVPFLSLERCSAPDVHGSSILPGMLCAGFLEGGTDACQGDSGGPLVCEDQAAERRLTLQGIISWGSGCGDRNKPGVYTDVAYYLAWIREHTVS

[8] = A cytotoxicity screen of small molecule inhibitors of the PhoP region in Salmonella typhi identified in the primary screen. [Related pubchem assays: 1850, 1864, 1985 ]; assay type: functional
[9] = target: Peroxisome proliferator-activated receptor gamma/Nuclear receptor coactivator 2 (Homo sapiens, UniProt P37231); assay type: functional;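 note: agonist potency for raising coactivator recruitment to the receptor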
Peroxisome proliferator-activated receptor gamma/Nuclear receptor coactivator 2, sequence (P37231 whole entry): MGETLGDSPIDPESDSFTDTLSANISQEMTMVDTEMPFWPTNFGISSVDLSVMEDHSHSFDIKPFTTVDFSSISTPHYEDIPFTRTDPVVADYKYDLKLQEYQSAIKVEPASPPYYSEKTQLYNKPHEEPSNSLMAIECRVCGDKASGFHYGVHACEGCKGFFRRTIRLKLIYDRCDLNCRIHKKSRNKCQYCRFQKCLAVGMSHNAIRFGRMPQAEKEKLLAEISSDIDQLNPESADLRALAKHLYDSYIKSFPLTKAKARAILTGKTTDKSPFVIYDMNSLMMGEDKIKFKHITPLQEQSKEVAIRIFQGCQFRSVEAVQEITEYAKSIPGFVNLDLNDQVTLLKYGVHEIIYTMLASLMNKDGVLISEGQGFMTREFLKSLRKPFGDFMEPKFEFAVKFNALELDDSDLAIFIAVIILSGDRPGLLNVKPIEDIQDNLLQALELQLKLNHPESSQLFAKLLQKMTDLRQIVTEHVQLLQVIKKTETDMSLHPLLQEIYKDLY
Peroxisome proliferator-activated receptor gamma/Nuclear receptor coactivator 2, sequence (Q15596 whole entry, further chain): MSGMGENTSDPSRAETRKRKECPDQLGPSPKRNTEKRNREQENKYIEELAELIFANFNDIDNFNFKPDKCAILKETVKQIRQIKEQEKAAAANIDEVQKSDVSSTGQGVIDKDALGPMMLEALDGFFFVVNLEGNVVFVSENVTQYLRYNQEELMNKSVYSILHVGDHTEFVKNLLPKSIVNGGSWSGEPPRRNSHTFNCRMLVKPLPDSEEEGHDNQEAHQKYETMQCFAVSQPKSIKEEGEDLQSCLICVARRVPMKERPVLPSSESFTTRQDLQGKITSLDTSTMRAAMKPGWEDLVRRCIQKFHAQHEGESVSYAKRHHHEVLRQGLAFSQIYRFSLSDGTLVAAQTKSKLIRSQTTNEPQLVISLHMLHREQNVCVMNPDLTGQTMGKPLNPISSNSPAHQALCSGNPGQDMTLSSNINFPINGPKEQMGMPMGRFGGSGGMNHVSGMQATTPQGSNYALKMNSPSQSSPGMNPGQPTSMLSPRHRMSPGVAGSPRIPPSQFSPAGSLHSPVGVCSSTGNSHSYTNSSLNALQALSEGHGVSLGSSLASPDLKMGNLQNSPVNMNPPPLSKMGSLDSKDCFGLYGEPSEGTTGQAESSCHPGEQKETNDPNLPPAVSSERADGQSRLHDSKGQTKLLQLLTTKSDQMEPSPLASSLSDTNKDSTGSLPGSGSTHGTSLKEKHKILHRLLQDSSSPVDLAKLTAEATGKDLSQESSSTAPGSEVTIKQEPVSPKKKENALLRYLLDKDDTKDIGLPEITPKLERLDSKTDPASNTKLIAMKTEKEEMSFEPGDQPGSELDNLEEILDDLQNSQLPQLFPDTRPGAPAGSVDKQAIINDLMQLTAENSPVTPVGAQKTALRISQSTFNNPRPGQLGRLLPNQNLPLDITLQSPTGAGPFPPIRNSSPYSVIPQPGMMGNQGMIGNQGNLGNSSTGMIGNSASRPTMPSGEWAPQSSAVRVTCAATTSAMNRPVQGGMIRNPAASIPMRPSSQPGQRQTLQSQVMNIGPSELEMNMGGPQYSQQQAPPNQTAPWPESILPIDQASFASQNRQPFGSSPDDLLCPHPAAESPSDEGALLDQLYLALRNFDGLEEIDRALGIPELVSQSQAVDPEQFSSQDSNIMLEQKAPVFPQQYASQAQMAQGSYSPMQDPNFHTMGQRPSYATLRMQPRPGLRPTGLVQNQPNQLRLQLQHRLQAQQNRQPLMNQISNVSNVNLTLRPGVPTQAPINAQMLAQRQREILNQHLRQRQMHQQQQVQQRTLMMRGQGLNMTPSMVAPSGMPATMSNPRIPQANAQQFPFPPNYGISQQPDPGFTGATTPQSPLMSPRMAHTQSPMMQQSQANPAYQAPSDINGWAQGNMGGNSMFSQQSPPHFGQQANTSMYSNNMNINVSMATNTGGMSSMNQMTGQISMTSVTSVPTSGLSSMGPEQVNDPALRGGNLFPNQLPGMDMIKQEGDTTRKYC

[10] = target: Peroxisome proliferator-activated receptor gamma/Nuclear receptor coactivator 1 (Homo sapiens, UniProt P37231); assay type: functional;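 note: agonist potency as compounds enhance coactivator SRC-1 recruitment to PPARgamma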
Peroxisome proliferator-activated receptor gamma/Nuclear receptor coactivator 1, sequence (P37231 whole entry): as the sequence (P37231 whole entry) above
Peroxisome proliferator-activated receptor gamma/Nuclear receptor coactivator 1, sequence (Q15788 whole entry, further chain): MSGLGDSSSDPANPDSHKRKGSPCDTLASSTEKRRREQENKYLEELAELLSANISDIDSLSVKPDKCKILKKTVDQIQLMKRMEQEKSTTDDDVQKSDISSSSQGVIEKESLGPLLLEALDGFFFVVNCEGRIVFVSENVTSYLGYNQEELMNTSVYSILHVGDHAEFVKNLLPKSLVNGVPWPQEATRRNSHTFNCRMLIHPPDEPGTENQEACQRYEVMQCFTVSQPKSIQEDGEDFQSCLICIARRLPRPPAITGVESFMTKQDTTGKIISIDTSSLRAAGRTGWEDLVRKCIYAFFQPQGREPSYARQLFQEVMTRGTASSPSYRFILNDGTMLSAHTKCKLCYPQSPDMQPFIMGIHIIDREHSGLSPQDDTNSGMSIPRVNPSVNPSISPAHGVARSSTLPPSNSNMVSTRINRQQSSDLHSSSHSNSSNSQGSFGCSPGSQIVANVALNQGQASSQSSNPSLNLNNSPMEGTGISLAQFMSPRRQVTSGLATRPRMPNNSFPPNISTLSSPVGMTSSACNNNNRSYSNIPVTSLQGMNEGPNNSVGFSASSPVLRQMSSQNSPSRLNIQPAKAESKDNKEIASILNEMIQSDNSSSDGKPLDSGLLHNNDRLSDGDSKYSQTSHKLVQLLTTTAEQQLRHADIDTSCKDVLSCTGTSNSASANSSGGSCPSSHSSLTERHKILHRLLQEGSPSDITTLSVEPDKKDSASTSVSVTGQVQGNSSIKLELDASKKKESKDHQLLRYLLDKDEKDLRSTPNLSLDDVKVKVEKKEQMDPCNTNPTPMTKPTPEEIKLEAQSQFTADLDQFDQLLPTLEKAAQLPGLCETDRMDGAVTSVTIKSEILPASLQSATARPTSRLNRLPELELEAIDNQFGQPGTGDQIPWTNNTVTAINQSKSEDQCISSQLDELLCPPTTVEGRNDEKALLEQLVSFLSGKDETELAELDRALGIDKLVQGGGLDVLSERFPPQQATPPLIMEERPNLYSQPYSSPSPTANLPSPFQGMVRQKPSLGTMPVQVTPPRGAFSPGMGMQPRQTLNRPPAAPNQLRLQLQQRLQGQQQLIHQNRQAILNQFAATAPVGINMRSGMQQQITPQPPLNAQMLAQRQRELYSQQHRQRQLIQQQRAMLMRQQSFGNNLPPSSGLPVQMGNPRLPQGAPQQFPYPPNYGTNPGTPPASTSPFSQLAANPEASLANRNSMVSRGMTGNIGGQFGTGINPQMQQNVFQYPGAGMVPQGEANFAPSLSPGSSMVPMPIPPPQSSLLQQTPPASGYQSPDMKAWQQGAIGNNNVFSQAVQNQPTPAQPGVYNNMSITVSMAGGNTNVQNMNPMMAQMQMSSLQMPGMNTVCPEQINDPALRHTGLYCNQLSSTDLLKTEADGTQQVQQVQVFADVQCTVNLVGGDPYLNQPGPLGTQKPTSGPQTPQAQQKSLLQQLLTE

[11] = target: Peroxisome proliferator-activated receptor gamma/Nuclear receptor coactivator 3 (Homo sapiens, UniProt P37231); assay type: functional;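 note: agonist potency for raising coactivator recruitment to the receptor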
[12] = target: T4, Ubiquitin-conjugating enzyme E2 N (Homo sapiens, UniProt P61088); assay type: functional;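 note: Dose-response confirmation in a TR-FRET assay detecting UBC13-driven polyubiquitin chain formation, inhibition measured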
T4 sequence (P61088 whole entry): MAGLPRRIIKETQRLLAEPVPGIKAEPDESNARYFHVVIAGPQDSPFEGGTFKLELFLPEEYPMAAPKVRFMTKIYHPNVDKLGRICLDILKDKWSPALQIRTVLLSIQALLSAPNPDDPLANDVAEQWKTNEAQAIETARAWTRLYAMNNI

Hexokinase = target: T5, Hexokinase (Trypanosoma brucei, UniProt Q38C41); experiment: Confirmation assay for inhibitors of Trypanosoma brucei hexokinase 1-Analogue-first series. [Related pubchem assays (depositor defined):AID1430, AID1632, AID2516, AID2560, AID2579, AID2600, AID449725, AID492951]; assay type: functional
T5 sequence (Q38C41 whole entry): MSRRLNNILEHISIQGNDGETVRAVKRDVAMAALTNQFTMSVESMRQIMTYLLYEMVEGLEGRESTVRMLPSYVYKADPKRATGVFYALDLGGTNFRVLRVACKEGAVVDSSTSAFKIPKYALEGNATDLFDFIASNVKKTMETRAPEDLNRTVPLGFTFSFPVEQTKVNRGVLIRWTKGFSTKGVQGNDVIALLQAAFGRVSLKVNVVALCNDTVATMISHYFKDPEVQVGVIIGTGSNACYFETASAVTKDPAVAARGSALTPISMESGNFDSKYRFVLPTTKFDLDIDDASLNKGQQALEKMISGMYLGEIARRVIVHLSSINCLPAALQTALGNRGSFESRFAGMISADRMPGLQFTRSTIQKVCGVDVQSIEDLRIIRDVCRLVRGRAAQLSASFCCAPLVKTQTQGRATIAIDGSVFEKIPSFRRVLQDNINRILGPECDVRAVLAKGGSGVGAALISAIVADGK

[13] = inhibitors of intracellular T. cruzi replication, confirmation, NIH3T3 host cells, beta-gal luminescence (AID 2044); assay type: functional, cell-based;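 note: intracellular parasites grown in NIH/3T3 mouse fibroblasts as host cells; luminescent beta-galactosidase reporter signal from transgenic T. cruzi replicating inside host cells; inhibitors lower the luminescence signal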
[14] = Luminescence Cell-Based Dose Retest to Confirm Inhibitors of Cancer Stem Cells. [Related pubchem assays (depositor defined):AID2717, AID2721]; assay type: functional; details: Homo sapiens
INS1 = experiment: beta cell apoptosis inhibitors, cytokine rescue, dose response, luminescence, retest (AID 449756); assay type: functional, cell-based; details: Rattus norvegicus;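 note: cell death triggered by IL-1 beta plus TNF-alpha plus IFN-gamma mixture; protective hits raise ATP signal compared with cytokine alone wells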
[15] = insulin promoter down-regulators in MIN6 cells, imaging, high-content screening, mouse beta cells (AID 1628); assay type: functional
[16] = cytotoxicity in MIN6 insulinoma cells, dose response, cytotoxicity control, cell-based, mouse insulinoma (AID 2122); assay type: functional;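 note: confirmatory high-throughput counterscreen run to flag cytotoxic compounds; mouse MIN-6 beta cells carrying an insulin promoter eGFP reporter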
[17] = cytotoxicity toward NIH3T3 fibroblasts, dose response, counter-screen, cell-based, ATP luminescence, mouse fibroblasts (AID 2010); assay type: functional;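 note: cells exposed to compound for about 90 hours before reading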

Voltage-gated inwardly rectifying potassium channel KCNH2, sequence (Q12809 whole entry): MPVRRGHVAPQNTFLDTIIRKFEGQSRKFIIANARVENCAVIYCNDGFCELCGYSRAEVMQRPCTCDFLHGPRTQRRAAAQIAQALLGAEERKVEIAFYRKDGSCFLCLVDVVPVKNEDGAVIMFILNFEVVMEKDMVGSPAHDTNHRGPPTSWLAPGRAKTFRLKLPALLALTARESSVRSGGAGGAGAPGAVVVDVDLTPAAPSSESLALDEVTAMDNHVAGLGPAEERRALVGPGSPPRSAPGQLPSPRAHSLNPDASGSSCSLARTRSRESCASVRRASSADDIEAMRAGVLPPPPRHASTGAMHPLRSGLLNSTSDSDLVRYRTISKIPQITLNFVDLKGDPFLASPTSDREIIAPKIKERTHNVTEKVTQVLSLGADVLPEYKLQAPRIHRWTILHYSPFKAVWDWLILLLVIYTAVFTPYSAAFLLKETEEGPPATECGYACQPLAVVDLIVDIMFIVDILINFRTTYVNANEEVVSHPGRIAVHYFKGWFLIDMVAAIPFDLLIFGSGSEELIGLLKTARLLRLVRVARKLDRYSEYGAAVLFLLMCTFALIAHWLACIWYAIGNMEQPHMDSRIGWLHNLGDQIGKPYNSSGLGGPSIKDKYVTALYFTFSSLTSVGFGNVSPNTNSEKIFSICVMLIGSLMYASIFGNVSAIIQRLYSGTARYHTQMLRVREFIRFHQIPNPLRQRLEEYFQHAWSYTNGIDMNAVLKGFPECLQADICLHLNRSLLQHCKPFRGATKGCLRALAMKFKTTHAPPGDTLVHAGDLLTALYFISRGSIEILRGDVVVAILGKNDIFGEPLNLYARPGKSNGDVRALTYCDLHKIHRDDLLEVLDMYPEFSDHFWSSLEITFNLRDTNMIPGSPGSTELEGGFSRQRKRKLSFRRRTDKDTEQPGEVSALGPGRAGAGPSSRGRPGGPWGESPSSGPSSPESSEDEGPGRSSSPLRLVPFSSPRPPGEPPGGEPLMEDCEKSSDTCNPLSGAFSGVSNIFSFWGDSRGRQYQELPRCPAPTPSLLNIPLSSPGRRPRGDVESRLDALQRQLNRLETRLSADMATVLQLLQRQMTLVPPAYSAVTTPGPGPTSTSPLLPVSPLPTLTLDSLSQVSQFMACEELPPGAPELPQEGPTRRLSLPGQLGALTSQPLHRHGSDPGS

Compound: NCCNS(=O)(=O)c1cccc2c(Cl)cccc12
- AC50 [1]: 22.4 µM (inconclusive)

Compound: COc1cccc2cc(-c3csc(NC(=O)CCC(=O)NCCCN4CCC(C)CC4)n3)c(=O)oc12
- EC50 (BJ [2]): 13.3 µM (active)
- EC50 [3]: 11.5 µM (active)
- EC50 (BJ [4]): 12.7 µM (active)
- EC50 (BJ [5]): > 150 µM (not active)

Compound: O=C(COc1cccnc1[N+](=O)[O-])Nc1ncc(Cl)cc1Cl
- IC50 [6]: 6.27 µM (active)

Compound: COc1ccc(-n2c3c(cc(C(=O)NCc4ccco4)c2=O)C(=O)CC(C)(C)C3)cc1
- EC50 [7]: 3.76 µM (active)

Compound: CCCC(C)NC(=O)Cc1ccccc1 (centres undefined)
- IC50 (Coagulation factor XII): > 50 µM (inactive)

Compound: COc1cc(OC)cc(C(=O)Nc2ccc(NC(=O)c3ccco3)c(C)c2)c1
- EC50 (BJ [2]): 10.1 µM (active)
- EC50 [3]: 9.93 µM (active)
- EC50 (BJ [4]): 15.2 µM (active)
- EC50 (BJ [5]): 19.5 µM (active)

Compound: COC(=O)Cc1ccc(NC(S)=NCc2ccc(Cl)cc2)cc1
- EC50 [8]: > 50 µM (active)

Compound: CN(C)CCCCSC(=N)N
- AC50 [1]: 35.5 µM (inconclusive)

Compound: CCn1cc(/C=C/C(=O)Nc2ccn(Cc3c(F)c(F)c(F)c(F)c3F)n2)cn1
- EC50 [9]: > 79.4 µM (not active)
- EC50 [10]: > 79.4 µM (not active)
- EC50 [11]: > 79.4 µM (not active)

Compound: CCCC1(c2ccccc2)NC(=O)N(CC(=O)Nc2cc(S(=O)(=O)N3CCOCC3)ccc2Cl)C1=O (centres undefined)
- EC50 [8]: > 50 µM (active)

Compound: COc1ccc(OC)c(NC(=O)CSc2nnc(N)s2)c1
- EC50 [9]: > 79.4 µM (not active)
- EC50 [10]: > 79.4 µM (not active)
- EC50 [11]: > 79.4 µM (not active)

Compound: COc1cccc(-c2ccc(SCc3ccccn3)nn2)c1
- EC50 [8]: > 50 µM (active)

Compound: CCCCCCNC(=O)N[C@@H](C(=O)NCCC[C@H]1CN2C(=NC[C@@H]2Cc2ccccc2)N1CCc1cccc(OC)c1)C(C)C
- IC50 [12]: > 20 µM (inactive)

Compound: O=C1c2ccccc2C(=O)N1OS(=O)(=O)c1ccccc1
- IC50 (Coagulation factor XII): 1.61 µM (active)

Compound: Cc1ccc(C)c2[nH]c(=O)c(CN(Cc3nnnn3C3CCCCC3)CC3CCCO3)cc12 (centres undefined)
- EC50 [7]: 1.68 µM (active)
- IC50 (Coagulation factor XII): > 50 µM (inactive)

Compound: CC(C)(C)Cc1nnc(NC(=O)Cc2cccs2)s1
- IC50 [6]: 4.36 µM (active)

Compound: O=C(NNc1cc(Cl)ccc1Cl)c1c(F)cccc1Cl
- IC50 (Coagulation factor XII): > 50 µM (inactive)

Compound: COc1ccc(-c2[nH]c3ccccc3c2SCCNC(=O)c2ccccc2)cc1
- EC50 [9]: 33.6 µM (not active)
- EC50 [10]: 39.5 µM (not active)
- EC50 [11]: < 79.4 µM (not active)

Compound: CCc1ccc2c(c1)cc(CN(C(=S)Nc1ccc(Cl)cc1)C1CC1)c1nnnn12
- EC50 [9]: 8.9 µM (active)
- EC50 [10]: 11.5 µM (not active)
- EC50 [11]: 11.6 µM (not active)

Compound: Cc1nn(CCc2nnn[nH]2)c2nc(-c3ccccc3)cc(C(F)(F)F)c12
- IC50 [6]: 7.45 µM (active)

Compound: CCOC(=O)C1=C(C)c2ccccc2OC1(C(=O)OCC)c1ccccc1 (centres undefined)
- IC50 [6]: 34.2 µM (active)

Compound: O=C(Nc1ccncc1)Nc1ccc(Cl)cc1
- EC50 [8]: > 50 µM (active)

Compound: CC(C)(C)c1ccc(C(=O)Nc2cc(Cl)ccc2O)cc1
- IC50 (Hexokinase): 25 µM (inactive)

Compound: COc1ccc(C(=O)Nc2cc(I)ccc2C(=O)O)cc1
- IC50 (Hexokinase): 14.2 µM (active)

Compound: O=C(Cn1sc2ccccc2c1=O)Nc1ccccc1I
- IC50 (Hexokinase): 4.75 µM (active)

Compound: O=C1c2cccc(Br)c2SCN1c1ccccc1
- IC50 (Hexokinase): > 25 µM (inactive)

Compound: COCCn1c(SCc2ccc(F)cc2)nc2ccccc2c1=O
- EC50 [7]: 2.37 µM (active)

Compound: NS(=O)(=O)c1ccc(N/N=C/c2cn(-c3ccccc3)nc2-c2cccs2)c([N+](=O)[O-])c1
- EC50 (BJ [2]): 19.4 µM (active)
- EC50 [13]: 0.846 µM (active)
- EC50 [3]: 8.22 µM (active)
- AC50 [14]: 1.39 µM (active)
- EC50 (BJ [4]): 4.24 µM (active)
- EC50 (BJ [5]): 6.17 µM (inconclusive)
- AC50 (INS1): 4.07 µM (active)
- IC50 [15]: 1.43 µM (active)
- IC50 [16]: 4.7 µM (active)
- EC50 [17]: 12.4 µM (active)

Compound: Cc1nc(N)sc1C(=O)N/N=C/c1ccco1
- IC50 [12]: > 20 µM (inactive)

Compound: CCN(CC)CCNC(=O)c1cc(S(C)(=O)=O)ccc1OC [TIAPRIDE HYDROCHLORIDE]
- AC50 [1]: 35.5 µM (inconclusive)
